Legend:
Assay in all cases: […]-SAM radiochemical methyltransferase assay, Michaelis-Menten fit
Conditions in all cases: SAM 320 μM (saturating), 50 mM Tris-HCl, 24 °C
CsAncCS = type: biochemical, synthetic construct
TcAncCS1 = type: biochemical, synthetic construct
PcCS1 = type: biochemical, Paullinia cupana
TcCS1 = type: biochemical, Theobroma cacao
TcAncCS2 = type: biochemical, synthetic construct
PcAncCS1 = type: biochemical, synthetic construct
TcCS2 = type: biochemical, Theobroma cacao
PcCS2 = type: biochemical, Paullinia cupana

SMILES	Km (CsAncCS) [µM]	Km (TcAncCS1) [µM]	Km (PcCS1) [µM]	Km (TcCS1) [µM]	Km (TcAncCS2) [µM]	Km (PcAncCS1) [µM]	Km (TcCS2) [µM]	Km (PcCS2) [µM]
Cn1cnc2[nH]c(=O)[nH]c(=O)c21 [7X, 7-methylxanthine]	26.7	34.6						
O=c1[nH]c(=O)c2[nH]cnc2[nH]1 [X, xanthine]		53.4	95.4	95.8	4.14	418		
Cn1c(=O)[nH]c(=O)c2[nH]cnc21 [3X, 3-methylxanthine]		139			154		49.1	677

— paper PMC8233510 (Molecular Biology and Evolution, 2021)
